Data reported in US20250049791A1, “Synthesis of MEK7 Inhibitors and methods of Use Thereof” (Northwestern University, priority 2023, published 2025).
Entries after “also recorded” stand apart in the source; their conditions may differ. Like-named read-outs stand apart in the source and are kept apart here.

Legend:
[1] = test system: Jurkat and KOPTK1; assay: Washout cytotoxicity experiment; format: cell-based; conditions: 18 hours with compound, washed, 30 hours
Procedure: T-cell cell lines Jurkat and KOPTK1 were plated in triplicates (20×10^4 cells per 96-well plate) and cultured with different concentrations of DK-2403 compound for 18 hours. Cells were washed twice to remove DK-2403 and incubated for 30 hours. Cell viability was measured (48 hours) using CellTiter-Glo luminescent cell viability assay.

[2] = target: T1, recombinant active full-length human MEK7 (Homo sapiens, UniProt O14733); assay: ADP-Glo kinase activity assay, MEK7 with JNK1 substrate; format: biochemical
T1 construct: recombinant active full-length human MEK7 (Carna Biosciences); purchased Carna Biosciences
T1 sequence (O14733 1-419): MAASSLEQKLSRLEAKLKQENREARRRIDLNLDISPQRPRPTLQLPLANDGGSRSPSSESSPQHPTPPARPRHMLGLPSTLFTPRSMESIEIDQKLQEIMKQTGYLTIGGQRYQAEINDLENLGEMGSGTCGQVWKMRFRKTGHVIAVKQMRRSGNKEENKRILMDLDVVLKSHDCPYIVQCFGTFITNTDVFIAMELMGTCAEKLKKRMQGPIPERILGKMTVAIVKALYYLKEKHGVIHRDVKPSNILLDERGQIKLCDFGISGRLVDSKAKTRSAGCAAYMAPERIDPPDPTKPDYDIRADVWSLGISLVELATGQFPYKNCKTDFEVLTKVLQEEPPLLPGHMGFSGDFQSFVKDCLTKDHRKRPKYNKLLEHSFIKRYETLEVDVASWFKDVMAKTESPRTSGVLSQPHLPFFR
Procedure: Procedure for a 5 μL Kinase reaction using the ADP-Glo Kinase Assay Kit from Promega. Staurosporine was used as the positive control, and DMSO (vehicle) was employed as the negative control. Activity of recombinant active full-length human MEK7 (Carna Biosciences) was measured with recombinant full-length human substrate JNK1 (MAPK8). Using a Mantis, a mixture of MEK7 and JNK1 was dispensed into a 384-well low volume white Proxiplate. For each well, 4 ng of MEK7 and 600 ng of JNK1 in kinase buffer (CST) were used, accounting for 1 μL of this mixture per well. Inhibitor was prepared in a DMSO solution (40 mM). A dose-response dilution was performed in a 384-well Echo transfer plate. Using an Echo Access, 10 nL of each solution was dispensed into the same 384-well low volume white Proxiplate as above. This mixture was allowed to incubate for 30 minutes at room temperature. Using a Mantis, 1 uL of an 8 μM ATP solution was added to each well, and the plate was allowed to incubate for another 1 hour at room temperature. Using the Mantis again, 4 μL of ADP Glo Reagent was dispensed into each well, and the plate was allowed to incubate for 45 min at room temperature. Finally, 9 μL of Kinase Detection Reagent was added manually to each well, and the plate was allowed to incubate for 45 minutes at room temperature. Luminescence was read on a Synergy Neo2 Plate Reader with filter cubes 3 and 114. Integration time was set to 0.20 seconds, gain set to 160, and read height set at 6 mm. All experiments were performed in triplicate on the plate, and at least in one separate technical duplicate was performed.
MEK4 selectivity was performed in the same manner with activated MEK4 (Carna Biosciences). Here, p-38α was employed as the kinase substrate in lieu of JNK1 due to the availability of reagents. […] To probe the ATP-competitive nature of 25, this compound was subjected to a similar assay forgoing the 30 minute incubation time described above (STAR Protocols 2021, 2, 100717). The results are tabulated below in compound characterization. Potency determined by duplicate of triplicates corresponded to a IC50 value, which is in line with the ratio difference observed among other covalent inhibitors (for examples, see Cell Chem. Biol. 2020, 27, 1285).

[3] = target: T2, EGFR (L858R) mutant (Homo sapiens, UniProt P00533, L858R); assay: ScanEDGE competition binding, EGFR (L858R); design: dose or concentration left out as unconfirmed
T2 construct: purchased DiscoverX (Eurofins)
Source text: (§1) The ScanEDGE assay, completed by DiscoverX (Eurofins) is a proprietary active site-directed competition binding assay. Compounds that bind the kinase active site prevent kinase binding to the immobilized ligand, reducing the amount of kinase captured on the solid support. Hits are identified by measuring the amount of kinase captured in experimental vs, control samples by a qPCR method that detects an associated DNA label. According to data provided by Eurofins, a typical hit at 5-10% of control signal in a 1 μM assay as shown above is generally associated with a KD in the range of 100-1,000 nM. Readings with greater than 35% of control signal correspond to exceeding large dissociation constants.

[4] = target: T3, MEK6 (Homo sapiens, UniProt P52564); assay: Additional selectivity assay, MEK6 (FIG. 9); format: binding
T3 sequence (P52564 1-334): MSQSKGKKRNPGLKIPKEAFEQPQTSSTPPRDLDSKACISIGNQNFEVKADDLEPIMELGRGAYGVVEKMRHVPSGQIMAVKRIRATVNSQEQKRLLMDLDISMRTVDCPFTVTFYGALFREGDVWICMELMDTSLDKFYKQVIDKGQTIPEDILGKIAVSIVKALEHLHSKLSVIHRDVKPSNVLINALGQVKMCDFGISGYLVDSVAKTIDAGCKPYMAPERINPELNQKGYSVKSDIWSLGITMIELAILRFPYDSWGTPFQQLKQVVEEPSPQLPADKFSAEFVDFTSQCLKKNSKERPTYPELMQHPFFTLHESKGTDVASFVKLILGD

[5] = target: T4, MEK5 (Homo sapiens, UniProt Q13163); assay: Additional selectivity assay, MEK5 (FIG. 9); format: binding
T4 sequence (Q13163 1-448): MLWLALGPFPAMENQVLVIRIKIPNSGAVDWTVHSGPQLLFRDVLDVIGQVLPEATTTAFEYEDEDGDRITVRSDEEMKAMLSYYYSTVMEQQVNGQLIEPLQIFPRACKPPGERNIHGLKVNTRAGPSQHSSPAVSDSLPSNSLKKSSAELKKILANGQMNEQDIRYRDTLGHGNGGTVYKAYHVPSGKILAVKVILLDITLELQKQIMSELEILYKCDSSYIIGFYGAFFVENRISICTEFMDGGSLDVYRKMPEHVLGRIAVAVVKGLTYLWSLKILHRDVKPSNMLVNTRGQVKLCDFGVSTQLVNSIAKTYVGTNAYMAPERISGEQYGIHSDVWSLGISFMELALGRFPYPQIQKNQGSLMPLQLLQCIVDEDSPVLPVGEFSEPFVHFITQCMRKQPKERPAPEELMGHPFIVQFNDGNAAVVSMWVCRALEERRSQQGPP

[6] = test system: p38α/β; assay: ScanEDGE competition binding, p38α/β; conditions: ScanEDGE screen
Source text: as §1

T2 sequence (P00533 25-1210 L858R): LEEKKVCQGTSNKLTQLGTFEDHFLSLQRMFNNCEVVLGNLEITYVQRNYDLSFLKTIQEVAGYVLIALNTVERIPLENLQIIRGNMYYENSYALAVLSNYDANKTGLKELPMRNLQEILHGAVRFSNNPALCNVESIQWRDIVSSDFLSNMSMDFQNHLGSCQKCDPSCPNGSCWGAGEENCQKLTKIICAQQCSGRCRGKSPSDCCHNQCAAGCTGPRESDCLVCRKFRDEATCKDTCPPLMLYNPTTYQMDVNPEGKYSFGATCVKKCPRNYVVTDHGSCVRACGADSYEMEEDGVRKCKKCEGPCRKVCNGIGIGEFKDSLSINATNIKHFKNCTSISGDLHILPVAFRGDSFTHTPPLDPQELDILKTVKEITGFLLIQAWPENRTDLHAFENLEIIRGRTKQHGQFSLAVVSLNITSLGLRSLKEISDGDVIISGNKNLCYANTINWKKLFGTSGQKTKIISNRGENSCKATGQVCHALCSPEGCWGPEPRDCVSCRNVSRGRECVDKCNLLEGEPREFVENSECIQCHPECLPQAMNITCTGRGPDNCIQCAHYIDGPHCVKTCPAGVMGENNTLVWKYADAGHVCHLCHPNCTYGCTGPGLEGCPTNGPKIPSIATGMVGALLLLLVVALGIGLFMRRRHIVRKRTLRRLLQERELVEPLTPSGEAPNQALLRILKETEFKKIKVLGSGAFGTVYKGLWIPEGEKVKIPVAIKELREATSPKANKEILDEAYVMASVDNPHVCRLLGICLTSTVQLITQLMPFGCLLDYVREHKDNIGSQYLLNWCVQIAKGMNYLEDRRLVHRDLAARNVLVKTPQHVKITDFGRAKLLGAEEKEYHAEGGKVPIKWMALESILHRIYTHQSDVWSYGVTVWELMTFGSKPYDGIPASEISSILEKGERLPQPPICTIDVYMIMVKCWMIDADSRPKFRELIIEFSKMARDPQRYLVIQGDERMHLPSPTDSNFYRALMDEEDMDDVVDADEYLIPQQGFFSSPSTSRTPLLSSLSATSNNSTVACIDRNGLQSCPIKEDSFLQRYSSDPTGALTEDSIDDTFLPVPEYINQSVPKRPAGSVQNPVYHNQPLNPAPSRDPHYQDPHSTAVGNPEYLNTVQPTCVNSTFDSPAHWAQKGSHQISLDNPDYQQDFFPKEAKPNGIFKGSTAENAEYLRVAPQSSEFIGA

IC50 ([2]; 30 min preincubation, read-out: MEK7 IC50): 10 nM
IC50 ([2]; MEK7 IC50, first experiment (IC50±SEM, n=3), 30 min preincubation, first value in brackets): 17 nM
IC50 ([2]; MEK7 IC50, second experiment (IC50±SEM, n=3), 30 min preincubation, second value in brackets): < 1.4 nM
IC50 ([2]; MEK7 IC50 without preincubation, first experiment (n=3), without preincubation, first value in brackets): 67 ± 21 nM
IC50 ([2]; MEK7 IC50 without preincubation, second experiment (n=3), without preincubation, second value in brackets): 119 nM
IC50 ([2]; without 30 min preincubation, overall value, read-out: MEK7 IC50 without preincubation): 93 nM
IC50 ([2]; without preincubation, no unit printed, read-out: MEK7 IC50 without preincubation): 93 nM
binding to EGFR (L858R) mutant [3]: interacted significantly
activity/binding at MEK6 [4]: inactive; also recorded: lack of binding
activity/binding at MEK5 [5]: inactive; also recorded: lack of binding
activity on p38α/β [6]: no appreciable activity
SMILES: O=C(CCl)Nc1cccc(Oc2cc(NCc3ccccc3)ncn2)c1 [Compound 25, N-(3-((6-(benzylamino)pyrimidin-4-yl)oxy)phenyl)-2-chloroacetamide]
cytotoxicity after washout [1]: resistant to washout
